The text below walks through data of paper PMC5974720, “Urate transport function of rat sodium‐dependent nucleobase transporter 1” (Physiological Reports, 2018).

The target in data set [1] is T1, rat sodium-dependent nucleobase transporter 1 (rSNBT1) (Rattus norvegicus, UniProt D2KX48).
T1 construct: gene Slc23a4
T1 sequence (D2KX48 1-614): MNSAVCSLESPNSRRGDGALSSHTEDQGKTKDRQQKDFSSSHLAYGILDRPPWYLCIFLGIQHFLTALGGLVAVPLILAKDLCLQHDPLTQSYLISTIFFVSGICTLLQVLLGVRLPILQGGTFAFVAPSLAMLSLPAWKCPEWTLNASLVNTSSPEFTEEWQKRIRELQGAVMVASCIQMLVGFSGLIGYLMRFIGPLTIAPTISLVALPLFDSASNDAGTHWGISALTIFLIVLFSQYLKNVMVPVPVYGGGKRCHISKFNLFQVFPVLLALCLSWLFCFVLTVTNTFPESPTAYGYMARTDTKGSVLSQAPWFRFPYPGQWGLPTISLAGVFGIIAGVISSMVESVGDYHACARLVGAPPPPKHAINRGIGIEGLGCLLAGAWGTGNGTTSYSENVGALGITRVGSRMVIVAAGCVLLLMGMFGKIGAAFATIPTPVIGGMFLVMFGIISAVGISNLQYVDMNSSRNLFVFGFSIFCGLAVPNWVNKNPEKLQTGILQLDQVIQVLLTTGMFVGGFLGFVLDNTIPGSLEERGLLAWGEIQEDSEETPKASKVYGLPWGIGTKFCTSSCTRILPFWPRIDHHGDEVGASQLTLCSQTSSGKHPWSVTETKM
Description: inhibition of rSNBT1-specific […]urate uptake in stably transfected MDCKII cells. Format: cell-based.

For data set [2], the target named is T1, rat sodium-dependent nucleobase transporter 1 (rSNBT1). The experiment in a line: inhibition of rSNBT1-specific […]urate uptake in stably transfected MDCKII cells; [3H]uracil uptake in transfected HEK293 cells. Format: cell-based.
For data set [3], the target named is T2, human organic anion transporter 1 (OAT1) (Homo sapiens, UniProt Q4U2R8).
T2 construct: gene SLC22A6
T2 sequence (Q4U2R8 1-563): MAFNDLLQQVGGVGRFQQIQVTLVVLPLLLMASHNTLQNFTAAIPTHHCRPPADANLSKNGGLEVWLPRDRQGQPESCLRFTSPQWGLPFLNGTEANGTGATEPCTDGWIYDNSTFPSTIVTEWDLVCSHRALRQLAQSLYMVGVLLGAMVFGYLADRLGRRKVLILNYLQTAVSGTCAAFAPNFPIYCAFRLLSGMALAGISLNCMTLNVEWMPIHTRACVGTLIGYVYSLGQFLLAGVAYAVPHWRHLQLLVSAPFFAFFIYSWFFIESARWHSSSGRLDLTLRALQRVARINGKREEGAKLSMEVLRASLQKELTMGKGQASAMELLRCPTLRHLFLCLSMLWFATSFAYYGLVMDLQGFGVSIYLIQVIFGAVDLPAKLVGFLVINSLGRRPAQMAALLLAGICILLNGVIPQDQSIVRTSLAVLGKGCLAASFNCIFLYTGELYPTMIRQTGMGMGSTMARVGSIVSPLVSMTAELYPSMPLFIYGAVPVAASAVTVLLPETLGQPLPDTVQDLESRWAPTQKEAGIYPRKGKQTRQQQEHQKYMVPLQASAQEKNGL
The experiment in a line: […]urate uptake in transiently transfected HEK293 cells. In kind it is cell-based.

Data set [4] has as its target T3, human URAT1 (urate transporter 1) (Homo sapiens, UniProt Q96S37).
T3 construct: gene SLC22A12
T3 sequence (Q96S37 1-553): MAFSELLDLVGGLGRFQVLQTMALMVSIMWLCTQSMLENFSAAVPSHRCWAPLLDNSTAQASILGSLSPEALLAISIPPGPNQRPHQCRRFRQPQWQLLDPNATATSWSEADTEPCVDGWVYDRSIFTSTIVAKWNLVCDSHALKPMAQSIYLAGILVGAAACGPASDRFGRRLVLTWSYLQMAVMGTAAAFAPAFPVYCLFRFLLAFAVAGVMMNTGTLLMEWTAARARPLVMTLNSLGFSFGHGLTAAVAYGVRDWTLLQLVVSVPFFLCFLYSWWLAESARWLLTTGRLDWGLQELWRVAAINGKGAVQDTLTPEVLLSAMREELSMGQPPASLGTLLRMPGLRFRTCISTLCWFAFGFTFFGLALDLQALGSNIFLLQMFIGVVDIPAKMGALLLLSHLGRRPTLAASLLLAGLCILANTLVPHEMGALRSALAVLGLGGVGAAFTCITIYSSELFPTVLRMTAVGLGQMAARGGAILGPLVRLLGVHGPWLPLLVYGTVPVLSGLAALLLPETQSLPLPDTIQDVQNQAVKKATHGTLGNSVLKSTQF

For data set [5], the target named is T4, human OAT3 (Homo sapiens, UniProt Q8TCC7).
T4 construct: gene SLC22A8
T4 sequence (Q8TCC7 1-542): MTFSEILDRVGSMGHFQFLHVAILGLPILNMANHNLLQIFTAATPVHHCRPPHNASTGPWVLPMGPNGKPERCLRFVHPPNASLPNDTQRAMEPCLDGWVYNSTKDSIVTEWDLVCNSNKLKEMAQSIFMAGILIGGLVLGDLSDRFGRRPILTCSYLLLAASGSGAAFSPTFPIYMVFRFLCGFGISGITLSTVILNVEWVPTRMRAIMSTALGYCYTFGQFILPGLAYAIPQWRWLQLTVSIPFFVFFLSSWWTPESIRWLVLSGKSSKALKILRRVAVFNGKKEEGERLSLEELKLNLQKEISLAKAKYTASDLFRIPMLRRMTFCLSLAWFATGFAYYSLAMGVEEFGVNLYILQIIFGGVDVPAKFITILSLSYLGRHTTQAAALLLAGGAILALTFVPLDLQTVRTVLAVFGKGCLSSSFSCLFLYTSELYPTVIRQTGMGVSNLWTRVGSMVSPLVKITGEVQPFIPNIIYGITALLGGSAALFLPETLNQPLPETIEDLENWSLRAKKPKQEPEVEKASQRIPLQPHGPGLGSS
Description: […]urate uptake in transiently transfected HEK293 cells.

The target in data set [6] is T5, rat breast cancer resistance protein (rBCRP) (Rattus norvegicus, UniProt Q80W57).
T5 construct: gene Abcg2
T5 sequence (Q80W57 1-657): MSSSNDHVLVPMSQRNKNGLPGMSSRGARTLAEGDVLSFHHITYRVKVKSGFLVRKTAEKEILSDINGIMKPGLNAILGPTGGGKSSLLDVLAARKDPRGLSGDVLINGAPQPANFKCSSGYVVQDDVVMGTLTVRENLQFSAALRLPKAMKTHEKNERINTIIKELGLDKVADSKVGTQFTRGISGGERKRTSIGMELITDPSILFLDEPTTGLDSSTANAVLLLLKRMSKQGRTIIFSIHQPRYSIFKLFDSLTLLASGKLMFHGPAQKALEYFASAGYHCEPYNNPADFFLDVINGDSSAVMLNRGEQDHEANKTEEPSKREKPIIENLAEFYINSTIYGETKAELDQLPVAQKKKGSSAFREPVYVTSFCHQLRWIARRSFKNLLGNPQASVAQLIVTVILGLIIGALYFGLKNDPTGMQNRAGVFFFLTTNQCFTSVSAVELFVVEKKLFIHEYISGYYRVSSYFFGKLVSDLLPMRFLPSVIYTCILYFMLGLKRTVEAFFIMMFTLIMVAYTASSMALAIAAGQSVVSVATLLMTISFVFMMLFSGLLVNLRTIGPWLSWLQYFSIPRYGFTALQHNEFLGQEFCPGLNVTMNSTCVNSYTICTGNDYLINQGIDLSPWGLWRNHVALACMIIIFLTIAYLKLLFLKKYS
The experiment in a line: inhibition of rBCRP-mediated urate efflux in HEK293 cells co-expressing rSNBT1 ([…]). Format: cell-based.

Substrate in data set [7]: O=c1[nH]c(=O)c2[nH]c(=O)[nH]c2[nH]1
Description: cells, lysate or membranes. Format: cell-based, Rattus norvegicus. The following applies: Na+ likely to share the same substrate recognition site with uracil.

Regarding `Cc1c[nH]c(=O)[nH]c1=O` [Thymine], the IC50 – broadly, the concentration that gives 50% inhibition – in data set [1] (read-out: IC50) turned out to be 8.8 ± 2.5 µM.
In data set [2], `O=c1cc[nH]c(=O)[nH]1` [Uracil] came in with a half-maximal inhibitory concentration (IC50) of 28.4 ± 8.5 µM.
Consider `O=c1[nH]c(=O)c2[nH]c(=O)[nH]c2[nH]1` [urate], for which the “[14C]urate uptake in transiently transfected HEK293 cells” value in data set [3] is “When transiently introduced into HEK293 cells, all those transporters raised urate uptake, but to lesser extents than rSNBT1”; in data set [4] it was “When transiently introduced into HEK293 cells, all those transporters raised urate uptake, but to lesser extents than rSNBT1”; in data set [5], “When transiently introduced into HEK293 cells, all those transporters raised urate uptake, but to lesser extents than rSNBT1”.
With `O=c1[nH]cnc2nc[nH]c12` [Hypoxanthine], in data set [1] (read-out: IC50), the IC50 was 10.1 ± 2.4 µM.
For `COc1ccc2c3c([nH]c2c1)[C@H](CC(C)C)N1C(=O)[C@H](CCC(=O)OC(C)(C)C)NC(=O)[C@@H]1C3` [Ko143], the “inhibition of rBCRP-mediated urate efflux in HEK293 cells co-expressing rSNBT1” value in data set [6] was “Ko143 was effective in inhibiting rBCRP‐mediated urate efflux almost completely at that concentration”.
In turn, `Nc1nc2nc[nH]c2c(=O)[nH]1` [Guanine] had an IC50 in data set [1] of 2.7 ± 0.8 µM.

B1: rat sodium-dependent nucleobase transporter 1 (rSNBT1) (Rattus norvegicus) (protein)
chain: T1 sequence (D2KX48 1-614)
Take B1: the Km (as a rule, the substrate concentration at which the rate is half of its maximum) in data set [7] is 433 ± 113 µM.
